# Measurements as given in patent US9381381B2, “Treatment of nail infections with no” (Aberdeen University, priority 2001, dated 2016).
# How the values were obtained:
# A. niger = experiment: Franz cell nail bioassay for anti-fungal gas penetration across a human nail; format: cell-based, Aspergillus niger; settings: 4 applications every 2 h 10 min, read after 24 hours; agar 8 mm below nail
# Method: After the agar had cooled and set, 25 μl of an A. niger spore suspension was pipetted onto the surface of the agar and a section of human nail fitted in an air-tight manner above the outlet hole, and clamped in place. The cells were then incubated at 32° C. for 24 h to obtain a carpet of mycelium.
# The top of the funnel for all of the Franz cells was then covered with Parafilm. The cells were left at room temperature. After a period of 2 h 10 min, the solutions in each Franz cell were removed and replaced with an equivalent solution and the process repeated every 2 h and 10 min for a further […] applications, giving a total of 4 applications. After the final application of solution, the cells were left covered at room temperature, to allow slow growth of the organism for 24 h.
# onychomycosis = settings: cited from earlier work; for Safety concerns: in vivo, po
SMILES,Growth of A. niger mycelium under human nail (A. niger),Safety concerns (onychomycosis),Cure rates (onychomycosis; oral treatment) [%]
O=C(O)CC(O)(CC(=O)O)C(=O)O [citric acid],full carpet of growth of mycelium,–,–
CCC(C)n1ncn(-c2ccc(N3CCN(c4ccc(OCC5COC(Cn6cncn6)(c6ccc(Cl)cc6Cl)O5)cc4)CC3)cc2)c1=O (centres unmarked) [itraconazole],–,"liver toxicity, severe skin reactions and drug interactions",–
CN(C/C=C/C#CC(C)(C)C)Cc1cccc2ccccc12 [terbinafine],–,"liver toxicity, severe skin reactions and drug interactions",~70
O=NO [sodium nitrite],full carpet of growth of mycelium,–,–
